{
  "source": "paper PMC10720383",
  "about": "“Acetylcholinesterase Inhibition in Rats and Humans Following Acute Fenitrothion Exposure Predicted by Physiologically Based Kinetic Modeling-Facilitated Quantitative In Vitro to In Vivo Extrapolation” (Environmental Science & Technology, 2023)",
  "key": {"PON1 [1]": {"target": "T1, PON1 (Rattus norvegicus, UniProt P55159)", "T1 construct": "gender-mixed liver microsomes or plasma from rats and humans; tissue Corning (male) and Sigma-Aldrich (female), pooled; host or cells: Sprague-Dawley rat liver microsomes, gender-mixed", "test": "in vitro", "assay_type": "in vitro ADME", "settings": "both sexes, Sprague-Dawley, pH 7.4, gender-mixed", "procedure": "(§1) In vitro incubations were performed to obtain kinetic parameters for the CYP450s-catalyzed conversion of FNT to FNO and MNP using gender-mixed rat and human liver microsomes. For the PON1-dominated detoxification of FNO to MNP, in vitro incubations were conducted with gender-mixed liver microsomes or plasma from rats and humans. Sample extraction with diisopropyl ether was performed before UPLC-PDA analysis. More details on in vitro incubations, sample extraction, UPLC-PDA analysis, and calculation of kinetic parameters are provided in the Supporting Information. […]\n(§2) All incubations were performed in triplicate.\n(§3) In vitro incubations for metabolic conversions of FNO\n(§4) Incubations with liver microsomes and plasma were performed to obtain kinetic parameters for PON1-mediated detoxification of FNO to MNP based on a modified method (Zhao et al. 2021). Incubation conditions that were suitable for linearity with respect to time and microsomal protein or plasma protein concentration were defined (data not shown). The final incubation mixtures with a total volume of 200 µL contained 50 mM Tris-HCl (pH 7.4), 2 mM CaCl2 as PON1 activity simulator, and FNO at final concentrations ranging from 25 to 5000 µM (added from 100 times concentrated stock solutions in acetonitrile). Controls differed from test incubations by the absence of liver microsomes or plasma, which was replaced with Tris-HCl. After 1-min pre-incubation in a 37°C water bath, 2 µL rat or 10 µL human liver microsomes (final concentration 0.2 and 1 mg microsomal protein/mL for rat and human samples, respectively) was added to initiate the reaction. For the plasma incubations, 4 µL of rat plasma or 10 µL human plasma (final concentration 1.2 and 3.3 mg plasma protein/mL for rat and human samples, respectively) was used. Reactions were terminated after incubating 10 min for rat samples or 20 min for human samples by adding 20 µL ice-cold HClO4 (10%, v/v), and samples were kept on ice until further extraction. All incubations were performed in triplicate.\n(§5) DIPE extraction of FNT and its metabolites (Zhao et al. 2019; Wang et al. 2022) was performed before UPLC analysis. […]\n(§6) Finally, the obtained residue was redissolved in 100 μL methanol, and subsequently analyzed with […]\n(§7) The quantification of FNT, FNO and MNP was conducted using a Shimadzu Nexera X2 liquid chromatography system (LC-30AD, Kyoto, Japan), connected with a photodiode array detector (SPD-M30A, Shimadzu, Kyoto, Japan). […]\n(§8) temperature at 10°C during analysis. […] Quantification of FNT and FNO was performed by integrating peak areas at 269 nm and for MNP at 315 nm using calibration curves (r2 > 0.99) prepared with commercial standards. The limit of quantification was 0.1 µM for FNT, FNO and MNP when using an injection volume of 20 µL. […]"}, "PON1 [2]": {"target": "T2, PON1 (Homo sapiens, UniProt P27169)", "T2 construct": "gender-mixed liver microsomes or plasma from rats and humans; tissue BioIVT (West Sussex, UK); host or cells: human plasma pooled from 25 donors, mixed gender", "T2 sequence (P27169 whole entry)": "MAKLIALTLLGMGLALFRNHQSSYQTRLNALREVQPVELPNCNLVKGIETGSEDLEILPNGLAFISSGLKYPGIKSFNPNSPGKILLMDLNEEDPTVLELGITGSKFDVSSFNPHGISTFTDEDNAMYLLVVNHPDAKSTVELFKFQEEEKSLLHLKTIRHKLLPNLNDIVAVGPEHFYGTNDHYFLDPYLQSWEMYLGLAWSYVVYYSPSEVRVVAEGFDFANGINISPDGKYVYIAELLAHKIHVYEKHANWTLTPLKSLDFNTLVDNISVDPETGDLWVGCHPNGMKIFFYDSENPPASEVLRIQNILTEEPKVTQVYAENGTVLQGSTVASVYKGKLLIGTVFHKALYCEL", "test": "in vitro", "assay_type": "in vitro ADME", "settings": "both sexes, pH 7.4, gender-mixed", "procedure": "as §1, §2, §3, §4, §5, §6, §7, §8"}},
  "note": "Where two headings read alike, the source gives them in different places.",
  "data": [
    {"smiles": "COP(=O)(OC)Oc1ccc([N+](=O)[O-])c(C)c1", "note": "[FNO, fenitrooxon]", "values": [
      {"measurement": "Km", "setting": "PON1 [1]; rat liver microsomes, read-out: Km, FNO to MNP (PON1-catalyzed), liver", "result": 4.53, "unit": "mM"},
      {"measurement": "Km", "setting": "PON1 [1]; rat plasma, read-out: Km, FNO to MNP (PON1-catalyzed), plasma", "result": 4.08, "unit": "mM"},
      {"measurement": "Km", "setting": "PON1 [2]; human liver microsomes, read-out: Km, FNO to MNP (PON1-catalyzed), liver", "result": 12.6, "unit": "mM"},
      {"measurement": "Km", "setting": "PON1 [2]; human plasma, read-out: Km, FNO to MNP (PON1-catalyzed), plasma", "result": 5.49, "unit": "mM"}
    ]}
  ]
}
